Measured values as given in publication PMC4976923, “Potent Allosteric Dengue Virus NS5 Polymerase Inhibitors: Mechanism of Action and Resistance Profiling” (PLoS Pathogens, 2016).

Key:
[1] = biological target: T1, FL NS5 from BHK-21 DENV2-NGC replicon cell lysate (Dengue virus type 2, UniProt P14340); experiment: Cellular thermal shift assay with replicon cell lysate; assay type: binding; conditions: +50 μM compound; DMSO control 42.5
T1 construct: FL NS5 from DENV-replicon lysates; expressed in transfected cells; host or cells: BHK-21 cells carrying a DENV2 (New Guinea C) sub-genomic replicon
Text: 1 Fig. 4.Ph ylo genetic tr ee repres enting relatedn ess of N-pocket amino acid residues from
2 different members of the Flavivirus famil y, derived from Clustal Omega program [ 8] .
6 Fi g .5. Ef fects of N -pocket compounds on DENV pol ymerase thermo-stability. Melting
7 temperatur e (Tm) w as ass essed b y thermo-d enatur ation in presence of the S YPRO Oran ge
8 dye as described in Materials and Methods. (A-F) Representative meltin g curves of DEN V4
10 inhibitors or 5 % DMSO control. (G) Cellular thermal shifts assays [ 9] wer e perfo rmed with
Bri efl y, l ysates w er e
12 incubated with compounds or 5 % DMSO for 1 hr at 4 °C, followed b y heating at 30- 70 °C.
13 Samples were spun and the supernat ants loaded onto 12 % SDS -PAGE gel s , followed b y gel
14 electrophoresis and west ern blotting with anti- DE NV2 NS5 antibody (GeneTex, USA). Table
16 controls treated with DMSO.
(1 picture or pasted object on this page, not shown here)

HCV replicon = HCV replicon firefly luciferase assay; assay type: cell-based, hepatitis C virus (HCV) genotype 1b; conditions: Hepatitis C virus; HuH-7; 48 hr; tested up to 25 μM
Method: A549, BHK-21 and Huh7 cells bearing stable DENV2 sub-genomic replicon or transiently electroporated DENV2-NGC replicon or infectious virus cDNAs were seeded into 384-well microplate (3,000 cells per well). After over-night incubation at 37°C with 5% CO2, the cells were treated with 2-fold serially diluted compounds, starting from 20 or 50 μM. At 48 hr of post-incubation, renilla luciferase activities were measured with the ViviRen live-cell substrate (Promega, USA) according to the manufacturer’s protocol. CellTiter-Glo reagent (Promega, USA) was then added to determine cytotoxic effects of compounds. For the HCV replicon assay, Huh-7.5 cells harboring the HCV replicon were seeded into a 96-well microplate (20,000 cells per well). At 48 hr after compound treatment, cells were assayed for firefly luciferase activity by using a Bright-Glo luciferase assay (Promega, USA). NITD-008, a nucleoside inhibitor of DENV and HCV was added as a control.
1 containing 2 % FBS, 1mM L-glutamine and 1 % penicillin-streptom ycin and incubated over-
At 24 h post-seeding, cells were inf ected with DENV1-4 at […]
8 DENV envelope protein ) and DRAQ5 (for nucl ear DNA) . Quantifications of DENV
9 envelope protein were determined using the Opera high content imaging s ystem and anal ysis […]
17 µM concentrations. At 48 hr of post-incubation, r enilla luciferas e activities were measured […]

For `COc1cc(OC)c(-c2ccc(C#CCO)s2)cc1C(=O)NS(=O)(=O)c1cccc2cccnc12` [Compound 29], the “Protein melting temperature Tm with compound, FL NS5 from BHK-21 DENV2-NGC replicon cell lysate” value [1] was 50 °C and the EC50 (HCV replicon) was greater than 25 µM.

With `COc1cccc(S(=O)(=O)NC(=O)c2cc(-c3ccc(C#CCO)s3)c(OC)cc2OC)c1` [Compound 27] the “Protein melting temperature Tm with compound, FL NS5 from BHK-21 DENV2-NGC replicon cell lysate” value [1] was 47.5 °C and the EC50 (HCV replicon) was greater than 25 µM.
